Laboratory results reported in patent publication US20050019746A1, “Apoptosis-related kinase/GPCRs” (EiRx Therapeutics Limited, priority 2003, published 2005).

Experiments:
Assay type in all cases: cell-based, human
A498 cells = assay: 10-14 day Clonagenicity Assay (MTT), A498; settings: for percentage survival relative to the missense, n = 1: independent experiment n = 1, dilution point of maximum toxicity; for percentage survival relative to the missense, n = 3: independent experiment n = 3, dilution point of maximum toxicity
In short: (§1)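 siRNA knockdown at 2 μg/ml (4 h transfection) in serially halved seed densities; cells grown 10-14 d at 37 °C, 5% CO2, then counted by MTT conversion. Values: mean % survival vs missense oligo at the dilution giving maximum toxicity.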

SKOV3 cells = assay: 10-14 day Clonagenicity Assay (MTT), SKOV3; settings: for percentage survival relative to the missense, n = 1: independent experiment n = 1, dilution point of maximum toxicity; for percentage survival relative to the missense, n = 2: independent experiment n = 2, dilution point of maximum toxicity; for percentage survival relative to the missense, n = 3: independent experiment n = 3, dilution point of maximum toxicity
Text: (§2) The Clonagenicity Assay represents a Cell Viability Screen that allows assessment of a cytotoxic insult at a variety of seed densities of cancer cell lines over an extended period of logarithmic growth, such that the definitive effect of the test substance can be accurately quantified. In this instance, the ‘cytotoxic insult’ to be tested involves the transfection of siRNA Oligomers to knockdown the expression of novel target Kinases and GPCRs as outlined previously. Cell number is quantified 10-14 days post siRNA transfection by MTT conversion as described in detail in Example 6.
(§3) The Clonagenicity Assay is optimised for each cell line examined with respect to seed number. The seed number varies for each cell line and accounts for the differences in cell size, growth rate and sensitivity to transfection-induced toxicity for each cell line pursued. Cells lines given as models for this example include HCT15, MCF7, A549, SKOV3, DU145, U251, PC3, A498 and HeLa. The siRNA oligo to Survivin serves as a positive control for toxicity in this assay and the missense control oligomer acts as a negative control as described in detail in Examples 5 and 6. The c-Raf, BCL2 and PI3K siRNA oligomers serve as additional controls as previously mentioned. The Clonagenicity assay is performed as outlined below.
(§4) Cells are seeded into a 96-well plate as described below and allowed to adhere overnight at 37° C. in a humidified atmosphere containing 5% CO2 in air. Wells are seeded with an appropriate cell number (cell line dependent) in Column 1 of the 96 well plates and this cell suspension is diluted 1 in 2 across the 96 well plates from Column 1 through to 6 (represented on the x-axis in results). Cells are next transfected with siRNA Oligomers, at a concentration of 2 μg/ml, against the genes of interest. Transfections continue for 4 hrs after which the transfection solution is removed and cells are refed with fresh medium and allow to incubate overnight. An additional media change@24 hrs post transfection is made to minimise toxicity of the transfection reagent. Cells are subsequently incubated for a 10-14 Day period post transfection at a 37° C. incubation as described above. Medium is renewed weekly following which MTT quantification is performed as described in Example 5.
(§5) To be considered cytotoxic, the siRNA Oligo against the gene target must induce a decreased viability in a cell line across at least 2 seed densities in the clonagenicity assay, such that a significant difference between the target gene and MS is observed i.e. no crossing of the Standard Error bars is detected. The average percentage viability, relative to missense, is recorded for the dilution point at which Maximum Toxicity is induced is recorded in Table 13.
(§6) Table 13 Clonagenicity Assay—This table gives the average percentage survival of the indicated cell lines relative to the missense in a clonagenicity assay, over 3 independent experiments. As an internal reference, the known survival gene ‘Survivin’, BCL2, c-Raf and PI3KR1 was also targeted by siRNA. When no Cytotoxic response is detected ‘-’ is recorded.

A549 cells = assay: 10-14 day Clonagenicity Assay (MTT), A549; settings: for percentage survival relative to the missense, n = 1: independent experiment n = 1, dilution point of maximum toxicity; for percentage survival relative to the missense, n = 3: independent experiment n = 3, dilution point of maximum toxicity
In short: as §1

DU145 cells = assay: 10-14 day Clonagenicity Assay (MTT), DU145; settings: for percentage survival relative to the missense, n = 2: independent experiment n = 2, dilution point of maximum toxicity
Text: as §2, §3, §4, §5, §6

U251 cells = assay: 10-14 day Clonagenicity Assay (MTT), U251; settings: U251, clonagenicity assay, dilution point of maximum toxicity; for percentage survival relative to the missense, n = 1: independent experiment n = 1; for percentage survival relative to the missense, n = 2: independent experiment n = 2; for percentage survival relative to the missense, n = 3: independent experiment n = 3
In short: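 U251 cells were seeded in a 96-well plate, left overnight to adhere at 37° C. in humidified 5% CO2, and serially diluted 1 in 2 from Column 1 to 6. They were transfected for 4 hrs with siRNA oligomers at 2 μg/ml, given fresh medium, changed again at 24 hrs, then incubated 10-14 days with weekly renewal. MTT conversion measured cell number; survival was expressed versus missense control.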

Row | Substance | percentage survival relative to the missense, n = 1 (A498 cells) | percentage survival relative to the missense, n = 3 (A498 cells) | percentage survival relative to the missense, n = 1 (SKOV3 cells) | percentage survival relative to the missense, n = 2 (SKOV3 cells) | percentage survival relative to the missense, n = 3 (SKOV3 cells) | percentage survival relative to the missense, n = 1 (A549 cells) | percentage survival relative to the missense, n = 2 (A549 cells; independent experiment n = 2, dilution point of maximum toxicity) | percentage survival relative to the missense, n = 3 (A549 cells) | percentage survival relative to the missense, n = 2 (DU145 cells) | percentage survival relative to the missense, n = 1 (U251 cells) | percentage survival relative to the missense, n = 3 (DU145 cells; independent experiment n = 3, dilution point of maximum toxicity) | percentage survival relative to the missense, n = 2 (U251 cells) | percentage survival relative to the missense, n = 3 (U251 cells)
1 | siRNA EKI: siRNA duplex, sense GCACUGGAUCCAAAGCAUGtt, antisense CAUGCUUUGGAUCCAGUGCtt; same in Tables 9 and 11 (sense GCACUGGAUCCAAAGCAUGTT; antisense CAUGCUUUGGAUCCAGUGCTT; chemistry not given here) | 21.6% | 15.4% | 10.5% | 19.8% | 20.6% | 27.1% | 30.9% | 49.1% | 62.2% | 62.3% |  |  | 
2 | siRNA FLT4: sense GUACGGCAACCUCUCCAACtt, antisense GUUGGAGAGGUUGCCGUACtt (sense GUACGGCAACCUCUCCAACTT; antisense GUUGGAGAGGUUGCCGUACTT; chemistry not given here) |  | 10% |  | 61% | 56.5% | 45.4% |  | 28.7% | 52.7% |  | 32.6% | 63% | 30.9%
3 | siRNA GRAF: siRNA duplex, sense GCGGAAGUUUGCAGAUUCCtt, antisense GGAAUCUGCAAACUUCCGCtt; same in Tables 9 and 11 (sense GCGGAAGUUUGCAGAUUCCTT; antisense GGAAUCUGCAAACUUCCGCTT; chemistry not given here) | 92.6% | 49.9% | 82.2% |  |  |  |  |  |  |  |  |  | 
4 | siRNA MPSK1: sense GGGUUAUGCCCACAGAGACtt, antisense GUCUCUGUGGGCAUAACCCtt (sense GGGUUAUGCCCACAGAGACTT; antisense GUCUCUGUGGGCAUAACCCTT; chemistry not given here) | 44.7% | 20.9% | 57.2% |  |  |  |  |  |  |  |  |  | 
5 | siRNA PCTAIRE: sense GUCAGUGCCCACAAAGACUtt, antisense AGUCUUUGUGGGCACUGACtt (sense GUCAGUGCCCACAAAGACUTT; antisense AGUCUUUGUGGGCACUGACTT; chemistry not given here) | 24.9% | 48.4% | 68.6% |  |  |  |  |  |  | 24.2% |  | 42.7% | 1.6%
6 | siRNA PSKH1: sense GAACCUGCACCGCUCCAUAtt, antisense UAUGGAGCGGUGCAGGUUCtt (sense GAACCUGCACCGCUCCAUATT; antisense UAUGGAGCGGUGCAGGUUCTT; chemistry not given here) | 54.8% | 10% | 48% |  |  | 51.7% |  |  |  | 60.5% |  |  | 56.9%
